{"source": "patent US20090076105A1", "about": "“PREVENTIVE OR THERAPEUTIC AGENT FOR CEREBRAL ISCHEMIC INJURY OR CEREBRAL ISCHEMIA REPERFUSION IN STROKE” (SANWA KAGAKU KENKYUSHO CO., LTD., priority 2006, published 2009)", "key": {"[1]": {"details": "as reported in Hatsumei Kyokai Kokai Giho No. 2006-500058; cited from earlier work"}, "[2]": {"system": "mouse models with middle cerebral artery occlusion", "assay": "Mouse models with middle cerebral artery occlusion (MCAO, 2 h) and reperfusion: neurological symptoms, cerebral infarction size and volume", "format": "in vivo", "details": "for Distribution of neurological scores: score 0 (number of mice) / Distribution of neurological scores: score 1 (number of mice) / Distribution of neurological scores: score 2 (number of mice) / Distribution of neurological scores: score 3 (number of mice) / Neurological scores Mean ± SEM: scored 22 hours after reperfusion, n = 9; for Neurological scores Mean ± SEM: score 0-3", "description": "Mouse models with acute ischemic stroke, namely, mouse models with middle cerebral artery occlusion were used as evaluation systems. The experiment consists of three experiments, i.e., Experiment 1 to evaluate the therapeutic efficacy of fidarestat (control group and fidarestat administration group), Experiment 2 to evaluate the protective effect of fidarestat (control group and fidarestat administration group), and Experiment 3 to evaluate the role of AR (wild-type mouse group and AR gene-deficient mouse group).\nUsed mice (C57BL/6J line, 22 to 28 g of body weight) were subjected to right middle cerebral artery occlusion (MCAO) by the filament method under gas anesthesia over 2 hours. Thereafter, anesthesia was terminated and the mice were kept in an intensive care system (ThermoCare, Inc) at 32° C. for 4 to 6 hours. The neurological symptoms, the cerebral infarction size, and the cerebral infarction volume were used as endpoints.\nThe evaluation of the neurological symptoms was determined 22 hours after reperfusion based on the following four scores:\n0: no neurological deficit (normal); 1: stretching of the opposite forefoot (mild); 2: contra lateral circling (moderate); and 3: loss of walking and righting reflex (severe).\nEvaluations of the cerebral infarction size and the cerebral infarction volume were performed as follows. After the evaluation of the neurological symptoms, the mouse brains were removed immediately and cut into 6 coronary slices with a thickness of 2 mm. In order to discover the sites of infarction, the slices were stained with 2% triphenyltetrazolium chloride (TTC) in a darkroom for 15 minutes and then fixed in 10% formalin buffer overnight. The posterior surface of each brain slice was photographed and analyzed using a digital image analyzing system (NeuroLucida, MicroBrightfield Inc.) The cerebral infarction size and the cerebral infarction volume (%) were calculated by an indirect method.\nIn Experiment 1 to evaluate the therapeutic efficacy of fidarestat, fidarestat was administered to the mice at 2 mg/kg 15 minutes before reperfusion. In Experiment 2 to evaluate the protective effect of fidarestat, fidarestat was administered to the mice at 10 mg/kg 30 minutes before occlusion. Only solvent was administered to the control group. In each case, forced intragastric administration was carried out."}, "[3]": {"details": "Experiment 1 (therapeutic efficacy): 2 mg/kg intragastric 15 minutes before reperfusion"}, "[4]": {"details": "Experiment 2 (protective effect): 10 mg/kg intragastric 30 minutes before occlusion"}}}
{"molecule": "NC(=O)[C@@H]1C[C@]2(NC(=O)NC2=O)c2cc(F)ccc2O1", "note": "[Fidarestat, (2S,4S)-6-fluoro-2′,5′-dioxospiro[chroman-4,4′-imidazolidine]-2-carboxamide]", "values": [{"measurement": "Pharmacological effect on the blood coagulation system and the circulatory system", "setting": "[1]", "result": "no pharmacological effect"}, {"measurement": "Cerebral infarction size observed after ischemic reperfusion", "setting": "[2]; Experiment 1 (therapeutic efficacy): 2 mg/kg 15 minutes before reperfusion, FIG. 1, brain slice Nos. 3 and 4", "result": "significantly reduced"}, {"measurement": "Cerebral infarction volume", "setting": "[2]; Experiment 1 (therapeutic efficacy): 2 mg/kg 15 minutes before reperfusion, FIG. 4", "result": "the same result was also obtained"}, {"measurement": "(Dead) number of mice", "setting": "[2]; [3]", "result": "(n = 2)"}, {"measurement": "Distribution of neurological scores: score 0 (number of mice)", "setting": "[2]; [3]", "result": 0}, {"measurement": "Distribution of neurological scores: score 1 (number of mice)", "setting": "[2]; [3]", "result": 7}, {"measurement": "Distribution of neurological scores: score 2 (number of mice)", "setting": "[2]; [3]", "result": 2}, {"measurement": "Distribution of neurological scores: score 3 (number of mice)", "setting": "[2]; [3]", "result": 0}, {"measurement": "Neurological scores Mean ± SEM", "setting": "[2]; Experiment 1 (therapeutic efficacy): 2 mg/kg intragastric 15 minutes before reperfusion, P < 0.02 vs vehicle", "result": "1.22 ± 0.15"}, {"measurement": "Cerebral infarction size observed after ischemic reperfusion", "setting": "[2]; Experiment 2 (protective effect): 10 mg/kg 30 minutes before occlusion, FIG. 2, brain slice Nos. 3 and 4", "result": "significantly reduced"}, {"measurement": "Cerebral infarction volume", "setting": "[2]; Experiment 2 (protective effect): 10 mg/kg 30 minutes before occlusion, FIG. 5", "result": "the same result was also obtained"}, {"measurement": "Distribution of neurological scores: score 0 (number of mice)", "setting": "[2]; [4]", "result": 0}, {"measurement": "Distribution of neurological scores: score 1 (number of mice)", "setting": "[2]; [4]", "result": 7}, {"measurement": "Distribution of neurological scores: score 2 (number of mice)", "setting": "[2]; [4]", "result": 2}, {"measurement": "Distribution of neurological scores: score 3 (number of mice)", "setting": "[2]; [4]", "result": 0}, {"measurement": "Neurological scores Mean ± SEM", "setting": "[2]; Experiment 2 (protective effect): 10 mg/kg intragastric 30 minutes before occlusion, P < 0.05 vs vehicle", "result": "1.22 ± 0.14"}, {"measurement": "Effect on the worsening of the neurological symptoms observed after ischemic reperfusion", "setting": "[2]; Experiments 1 and 2 (2 mg/kg 15 minutes before reperfusion; 10 mg/kg 30 minutes before occlusion)", "result": "significant effect"}]}
